Publication PMC12155096 (International Journal of Molecular Sciences, 2025)
Read-outs that look alike come from different tables or passages of the source.

Tests used:
human CYP2C19 [1] = target: T1, human CYP2C19 (Homo sapiens, UniProt P33261); test: biochemical
human CYP2D6 = human CYP2D6 (Homo sapiens, UniProt P10635)
human CYP2C9 [2] = target: T2, human CYP2C9 (Homo sapiens, UniProt P11712); test: biochemical
human CYP1A2 [3] = target: T3, human CYP1A2 (Homo sapiens, UniProt P05177); test: biochemical
T3 sequence (P05177 1-516): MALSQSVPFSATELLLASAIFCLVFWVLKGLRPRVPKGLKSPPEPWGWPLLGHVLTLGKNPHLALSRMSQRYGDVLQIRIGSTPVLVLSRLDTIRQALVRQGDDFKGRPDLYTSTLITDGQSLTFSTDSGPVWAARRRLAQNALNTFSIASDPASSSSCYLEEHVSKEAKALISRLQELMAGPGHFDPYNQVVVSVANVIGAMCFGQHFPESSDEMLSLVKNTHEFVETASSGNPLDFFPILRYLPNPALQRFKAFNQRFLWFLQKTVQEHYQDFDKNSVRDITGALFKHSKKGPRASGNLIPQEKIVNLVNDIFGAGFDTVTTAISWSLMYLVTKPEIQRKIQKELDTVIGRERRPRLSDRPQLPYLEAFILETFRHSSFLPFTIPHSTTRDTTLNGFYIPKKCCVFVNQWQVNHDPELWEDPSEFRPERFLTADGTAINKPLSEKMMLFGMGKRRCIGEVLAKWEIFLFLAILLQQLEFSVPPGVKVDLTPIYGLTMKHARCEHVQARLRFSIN

CYP3A4 [4] = target: T4, CYP3A4 (Homo sapiens, UniProt P08684); test: biochemical
T4 sequence (P08684 whole entry): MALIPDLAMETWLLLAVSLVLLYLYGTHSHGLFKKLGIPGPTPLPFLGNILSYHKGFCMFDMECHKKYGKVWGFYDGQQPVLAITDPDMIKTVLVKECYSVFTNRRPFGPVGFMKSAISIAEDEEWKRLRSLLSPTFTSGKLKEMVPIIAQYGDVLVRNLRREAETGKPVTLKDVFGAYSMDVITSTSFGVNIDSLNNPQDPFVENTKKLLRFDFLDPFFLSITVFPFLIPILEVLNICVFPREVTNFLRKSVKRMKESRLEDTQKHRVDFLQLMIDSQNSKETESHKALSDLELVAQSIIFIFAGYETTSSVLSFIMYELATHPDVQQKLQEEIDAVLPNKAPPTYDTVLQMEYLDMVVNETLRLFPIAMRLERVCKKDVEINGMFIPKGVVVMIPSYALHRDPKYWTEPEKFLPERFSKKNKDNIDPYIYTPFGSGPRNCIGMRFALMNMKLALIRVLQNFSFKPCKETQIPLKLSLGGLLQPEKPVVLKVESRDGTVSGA

[5] = target: Photinus pyralis (firefly) luciferase (Photinus pyralis, UniProt P08659); test: biochemical; type: biochemical
Sequence of Photinus pyralis (firefly) luciferase (P08659 whole entry): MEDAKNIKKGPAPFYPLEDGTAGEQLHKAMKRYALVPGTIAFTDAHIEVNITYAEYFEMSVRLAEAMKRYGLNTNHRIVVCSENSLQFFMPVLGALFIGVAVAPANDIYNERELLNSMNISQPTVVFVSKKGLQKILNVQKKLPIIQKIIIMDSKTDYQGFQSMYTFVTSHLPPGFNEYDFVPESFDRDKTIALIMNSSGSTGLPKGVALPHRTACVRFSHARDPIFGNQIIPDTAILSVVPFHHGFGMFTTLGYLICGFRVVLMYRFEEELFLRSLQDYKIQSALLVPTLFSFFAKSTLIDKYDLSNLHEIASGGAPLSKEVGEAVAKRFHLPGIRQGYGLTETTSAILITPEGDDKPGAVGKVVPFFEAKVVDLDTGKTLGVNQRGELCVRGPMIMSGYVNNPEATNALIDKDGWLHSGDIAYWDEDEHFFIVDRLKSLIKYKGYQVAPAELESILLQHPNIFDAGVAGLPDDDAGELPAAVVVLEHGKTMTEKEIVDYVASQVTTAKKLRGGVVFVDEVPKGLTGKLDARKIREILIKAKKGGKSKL

human CYP1A2 [6] = target: T3, human CYP1A2; conditions: for CYP1A2 Efficacy (in parenthesis): human
CYP3A4 [7] = target: T4, CYP3A4
human CYP2C9 [8] = target: T2, human CYP2C9; conditions: human
human CYP2C19 [9] = target: T1, human CYP2C19; conditions: human
[10] = CYP2C19 IC50 (half-maximal inhibitory concentration)
[11] = CYP2C9 IC50 (half-maximal inhibitory concentration)
[12] = CYP3A4 IC50 (half-maximal inhibitory concentration)
[13] = CYP1A2 IC50 (half-maximal inhibitory concentration)

Sequence of human CYP2D6 (P10635 whole entry): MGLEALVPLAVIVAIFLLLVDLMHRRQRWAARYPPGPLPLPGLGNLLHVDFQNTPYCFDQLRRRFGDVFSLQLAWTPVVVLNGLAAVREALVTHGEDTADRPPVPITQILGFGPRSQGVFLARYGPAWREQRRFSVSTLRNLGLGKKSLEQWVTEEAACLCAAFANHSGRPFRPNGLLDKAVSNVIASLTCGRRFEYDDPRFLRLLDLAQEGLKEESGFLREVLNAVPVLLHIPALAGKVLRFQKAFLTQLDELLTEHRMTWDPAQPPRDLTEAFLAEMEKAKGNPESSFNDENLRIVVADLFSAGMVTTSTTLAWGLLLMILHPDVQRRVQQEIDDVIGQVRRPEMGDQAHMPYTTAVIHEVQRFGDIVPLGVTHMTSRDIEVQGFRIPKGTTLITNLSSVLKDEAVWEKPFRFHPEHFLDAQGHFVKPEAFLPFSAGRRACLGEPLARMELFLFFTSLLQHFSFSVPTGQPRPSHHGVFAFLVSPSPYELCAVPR
T2 sequence (P11712 whole entry): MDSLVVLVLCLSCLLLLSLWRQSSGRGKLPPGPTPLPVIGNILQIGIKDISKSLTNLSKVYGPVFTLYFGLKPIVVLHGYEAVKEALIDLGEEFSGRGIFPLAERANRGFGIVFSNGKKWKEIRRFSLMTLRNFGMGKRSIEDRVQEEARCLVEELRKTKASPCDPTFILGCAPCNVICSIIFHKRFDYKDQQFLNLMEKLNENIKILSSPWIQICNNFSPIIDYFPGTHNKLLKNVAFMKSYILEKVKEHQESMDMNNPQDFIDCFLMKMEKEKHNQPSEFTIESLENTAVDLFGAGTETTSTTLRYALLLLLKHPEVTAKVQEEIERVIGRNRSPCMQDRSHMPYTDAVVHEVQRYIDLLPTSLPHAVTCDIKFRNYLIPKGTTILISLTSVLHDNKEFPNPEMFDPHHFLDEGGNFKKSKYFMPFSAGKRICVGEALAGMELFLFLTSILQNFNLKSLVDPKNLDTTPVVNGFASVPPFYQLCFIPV
T1 sequence (P33261 whole entry): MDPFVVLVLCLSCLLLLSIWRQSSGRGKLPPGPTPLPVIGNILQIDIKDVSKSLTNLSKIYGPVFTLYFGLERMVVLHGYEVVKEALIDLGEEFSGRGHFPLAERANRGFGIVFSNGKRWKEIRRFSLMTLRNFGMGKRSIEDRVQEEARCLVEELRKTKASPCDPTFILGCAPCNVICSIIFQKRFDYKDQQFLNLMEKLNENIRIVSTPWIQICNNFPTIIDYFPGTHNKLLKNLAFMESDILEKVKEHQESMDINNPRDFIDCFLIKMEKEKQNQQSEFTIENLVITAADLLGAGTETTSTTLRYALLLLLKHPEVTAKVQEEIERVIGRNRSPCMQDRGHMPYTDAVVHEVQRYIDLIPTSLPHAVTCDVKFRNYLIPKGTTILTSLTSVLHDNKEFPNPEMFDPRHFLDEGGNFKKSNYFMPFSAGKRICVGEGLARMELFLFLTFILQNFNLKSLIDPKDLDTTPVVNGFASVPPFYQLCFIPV

Compound | CYP2D6 IC50 (half-maximal inhibitory concentration) (human CYP2D6) | Luciferase IC50 (half-maximal inhibitory concentration) [5] | IC50 (human CYP2C19 [1]; [10]) | IC50 (human CYP2C9 [2]; [11]) | IC50 (CYP3A4 [4]; [12]) | IC50 (human CYP1A2 [3]; [13]) | CYP3A4 Efficacy (in parenthesis) (CYP3A4 [7]) | CYP1A2 Efficacy (in parenthesis) (human CYP1A2 [6]) | IC50 [5] | CYP2C19 Efficacy (in parenthesis) (human CYP2C19 [9]) | further results
C=CC(=O)OCCn1c(=O)n(CCOC(=O)C=C)c(=O)n(CCOC(=O)C=C)c1=O | Inactive | Inactive | – | – | – | – | – | – | – | – | IC50 (human CYP2C19 [1]): 4.01 µM; IC50 (human CYP2C9 [2]): 35.7 µM; IC50 (human CYP1A2 [3]): 58.1 µM; IC50 (CYP3A4 [4]): 0.25 µM
COC(=O)N(C(=O)N1COC2(C(=O)OC)Cc3cc(Cl)ccc3C2=N1)c1ccc(OC(F)(F)F)cc1 (racemic) [(+-)-Indoxacarb] | Inactive | Inactive | 0.28 µM | 4.76 µM | 6.03 µM | – | – | – | – | – | CYP1A2 IC50 (half-maximal inhibitory concentration) (human CYP1A2 [6]): Inactive
O=C1c2ccccc2C(=O)c2c(Cl)cccc21 [1-Chloroanthraquinone] | Inactive | Inactive | – | – | – | – | – | – | – | – | AC50 (human CYP2C19 [1]): 13.9 µM; IC50 (human CYP2C19 [1]): 13.9 µM; AC50 (human CYP2C9 [2]): 12.6 µM; IC50 (human CYP2C9 [2]): 12.6 µM; AC50 (human CYP1A2 [3]): 0.05 µM; IC50 (human CYP1A2 [3]): 0.05 µM; AC50 (CYP3A4 [4]): 2.37 µM
Oc1ccc2ccc3cccc4ccc1c2c34 [1-Hydroxypyrene] | Inactive | – | 15.7 µM | 35.6 µM | 27.7 µM | 0.83 µM | 27.72 ± 10.43 (-84 ± 7) % | 0.83 ± 0.11 (-98 ± 1) % | 68.7 µM | 15.71 ± 4.38 (-129 ± 16) % | CYP2C9 Efficacy (in parenthesis) (human CYP2C9 [8]): 35.57 ± 0 (-80 ± 9) %
Brc1ccc(Oc2ccc(Br)cc2Br)c(Br)c1 [2,2'4,4'-Tetrabromodiphenyl ether] | Inactive | – | 0.55 µM | – | – | 16.8 µM | 13.01 ± 6.86 (68 ± 8) % | 16.84 ± 7.26 (-69 ± 6) % | 44 µM | 0.55 ± 0.43 (-128 ± 5) % | AC50 (human CYP2C19 [1]; CYP2C19 AC50 (half-maximal activity concentration)): 0.55 µM; AC50 (human CYP2C9 [2]; CYP2C9 AC50 (half-maximal activity concentration)): 12.7 µM; AC50 (human CYP1A2 [3]; CYP1A2 AC50 (half-maximal activity concentration)): 16.8 µM; CYP3A4 IC50 (half-maximal inhibitory concentration) (CYP3A4 [7]): 13.01 ± 6.86 (68 ± 8) µM; AC50 (CYP3A4 [4]; CYP3A4 AC50 (half-maximal activity concentration)): 13 µM
Nc1ccc2c3c(cccc13)-c1ccccc1-2 [3-Aminofluoranthene] | – | – | – | – | – | – | – | – | 27.8 µM | – | IC50 (human CYP2C19 [1]; CYP2C19 IC50): 21.2 µM; CYP2D6 IC50 (human CYP2D6): Inactive; IC50 (human CYP2C9 [2]; CYP2C9 IC50): 34.7 µM; IC50 (human CYP1A2 [3]; CYP1A2 IC50): 0.13 µM; IC50 (CYP3A4 [4]; CYP3A4 IC50): 19.8 µM
Cc1ccc2cc3c(ccc4ccccc43)c3c2c1CC3 [3-Methylcholanthrene] | – | – | – | – | – | – | – | – | 6.94 µM | – | IC50 (human CYP2C19 [1]; CYP2C19 IC50): 22.4 µM; CYP2D6 IC50 (human CYP2D6): Inactive; IC50 (human CYP2C9 [2]; CYP2C9 IC50): 6.43 µM; IC50 (human CYP1A2 [3]; CYP1A2 IC50): 0.39 µM; IC50 (CYP3A4 [4]; CYP3A4 IC50): 8.02 µM
Cc1c2ccccc2c(C)c2c1ccc1ccccc12 [7,12-Dimethylbenz(a)anthracene] | – | – | – | – | – | – | – | – | 32.7 µM | – | IC50 (human CYP2C19 [1]; CYP2C19 IC50): 6.09 µM; CYP2D6 IC50 (human CYP2D6): Inactive; IC50 (human CYP2C9 [2]; CYP2C9 IC50): 27.3 µM; IC50 (human CYP1A2 [3]; CYP1A2 IC50): 0.5 µM; IC50 (CYP3A4 [4]; CYP3A4 IC50): 22.6 µM
Brc1c2ccccc2cc2ccccc12 [9-Bromoanthracene] | Inactive | – | 26.3 µM | 34.6 µM | 25 µM | 0.51 µM | 25.01 ± 9.91 (-59 ± 38) % | 0.51 ± 0.11 (-99 ± 4) % | 42.3 µM | 26.26 ± 8.46 (-125 ± 5) % | CYP2C9 Efficacy (in parenthesis) (human CYP2C9 [8]): 34.62 ± 2.26 (-73 ± 9) %
O=C1c2ccccc2-c2ccccc21 [9-Fluorenone] | Inactive | – | – | – | – | – | – | – | 67.7 µM | – | AC50 (human CYP2C19 [1]): 43.8 µM; IC50 (human CYP2C19 [1]): 43.8 µM; AC50 (human CYP2C9 [2]): 67.7 µM; IC50 (human CYP2C9 [2]): 67.7 µM; AC50 (human CYP1A2 [3]): 0.45 µM; IC50 (human CYP1A2 [3]): 0.45 µM; AC50 (CYP3A4 [4]): 10.4 µM
O=C1c2ccccc2Cc2ccccc21 [Anthrone] | Inactive | Inactive | 15.7 µM | 12.6 µM | 26.7 µM | 0.44 µM | 26.66 ± 4.8 (-63 ± 11) % | 0.44 ± 0.07 (-99 ± 1) % | – | 15.72 ± 5.91 (-83 ± 4) % | CYP2C9 Efficacy (in parenthesis) (human CYP2C9 [8]): 12.58 ± 3.51 (-54 ± 8) %
